Results published in US8795964B2, “GRM3 mutations and use thereof for the diagnosis and treatment of melanoma” (The United States of America, as represented by the …, priority 2010, dated 2014).

Experiments:
Assay type in all cases: cell-based, human
[1] = tested on: melanoma cells harboring WT or mutant GRM3; assay: Flow cytometry (FACS) cell cycle analysis, sub-G1 population; details: AZD-6244 2 μM for 72 hours, PI staining
Protocol: (§1) FIGS. 5A-5E: Melanoma lines expressing GRM3 mutants show increased sensitivity to inhibition of MEK by AZD-6244. (FIG. 5A) Immunoblot analysis of representative melanoma cell lines harboring either WT or mutant GRM3. The cells were treated with the indicated concentration of AZD-6244 and analyzed for Erk1/2 expression and phosphorylation. Cells were treated for 1 hour with AZD-6244 or vehicle alone as control. Lysates were subjected to protein blot analysis with α-Eek, anti-P-Erk1/2 (α-P-Erk1/2) and anti-GAPDH as a loading control. (FIG. 5B) Representative dose-response curves showing efficacy of AZD-6244 against GRM3 mutant lines compared to WT GRM3 lines. […] (FIG. 5D) fluorescence activated cells sorting (FACS) analysis of WT (2T) and A190V mutant (17T) cells showing cell cycle distribution (propidium iodide (PI) staining, x axis) versus cell counts (y axis). […] (FIG. 5D) Quantification of FACS-sorted AZD-6244-treated cells. The percentage of apoptotic cells was determined based on the sub-G1 population for vehicle-treated cells or 1 AZD-6244 treated cells. […]
Melanoma cells were seeded into T25 flasks at a density of 3×10^5 cells per flask in normal complete T2 medium and incubated at 37° C. for 24 hours prior to addition of AZD-6244 (cat #S1008) (Selleck Chemicals LLC-Houston, Tex.). […] Cellular DNA content was analyzed on Becton Dickinson FACSCalibur™ using CellQuest software. […]

PARP cleavage = assay: Immunoblot of PARP cleavage after AZD-6244 treatment; details: lysates from FACS analyzed cells
[2] = tested on: 63T-Glu573Lys melanoma cells; assay: Growth inhibition by AZD-6244 of mutant GRM3 cells (63T) transduced with empty vector or WT GRM3; details: 63T cells, 72 hours treatment, CellTiterGlo
Protocol: FIGS. 12A-12C: Expression of WT GRM3 in a mutant GRM3 background desensitizes cells to AZD-6244 inhibition. (FIG. 12A) Cell lysates from 63T cells transduced with empty vector or WT GRM3 were analyzed by western blotting using anti-FLAG-HRP and anti-GAPDH as a loading control. (FIG. 12B) Melanoma cells harboring WT (13T) or mutant GRM3 (63T-Glu573Lys) transduced with empty vector or WT GRM3 were tested for growth inhibition by AZD-6244. Cells were plated and treated with AZD-6244 concentrations ranging from 2 nM to 30 μM for 72 hours prior to analysis using CellTiterGlo and GraphPad Prism5. EC50 dose-response curves were generated from GraphPad using four-parameter nonlinear regression. (FIG. 12C) EC50 values for inhibition of cell growth by 72 h treatment with AZD-6244 of the indicated melanoma cell lines.
To test AZD-6244 inhibition of cells that had been stimulated with DCG-IV to activate MEK1/2, melanoma cells were plated in 96-well plates at 2,000 cells per well in either RPMI-1640/0.5% FBS/2.5 μM DCG-IV or RPMI-1640/10% FBS and incubated for 24 hours prior to addition of inhibitor at concentrations from 2 nM to 30 μM. Once the inhibitor was added, cells were incubated for 72 hours at 37° C. Plates were then analyzed as described above. […]

MEK = assay: Immunoblot of Erk1/2 phosphorylation in melanoma cell lines treated with AZD-6244; details: 1 hour treatment
Protocol: as §1, with “lines. Relative cell number after cells were treated for 72 hours with increasing concentrations (0.01-30 μM) of AZD-6244, as estimated by CellTiterGlo and plotted as percent survival, as compared to vehicle-treated control, versus log AZD-6244 concentration in nM (where 1 is 10 nM AZD-6244).” for “lines.”

A375 pooled GRM3 clones = assay: Migration assay (Boyden chamber), A375 pooled GRM3 clones with or without DCG-IV; details: 2.5 μM DCG-IV, serum-free medium in top chamber
Protocol: (§2) FIGS. 3A-3C: GRM3 mutations increase cell migration in vitro and in vivo. (FIG. 3A) A375 pooled GRM3 clones in the absence of stimulus (i) migrate as well as those stimulated with the group II metabotropic agonist DCG-IV (ii). A375 clones were seeded in Boyden chambers in either the absence of stimulus (i) or in the presence of 2.5 μM DCG-IV (ii) and assessed for their ability to migrate 16 hours later. (FIG. 3B) Mel-STR pooled GRM3 clones were analyzed for migration as described in (FIG. 3A). Stained wells were analyzed using a Zeiss microscope 10× lens and counted with NIH ImageJ software. (FIG. 3C) non-obese diabetic (NOD)/severe combined immunodeficiency (SCID) mice were intravenously injected with A375 pooled GRM3 clones expressing WT, G561E, S610L, E767K, or E870K GRM3, or vector alone, and examined after nine weeks. (i) Graph indicates the number of mice that had lung macrometastases. (ii) Representative images of lungs from mice injected with vector, WT or mutant expressing A375 clones.
(§3) Mel-STR pooled clones were seeded into pre-conditioned migration wells (8.0 μm—BD Biocoat, BD Biosciences) at 30,000 cells per well in serum-free medium or serum-free medium plus 2.5 μM DCG-IV in the top chamber. […] Inserts were analyzed and the number of cells migrated per field view was quantitated using ImageJ (NIH software). […]

[3] = tested on: Mel-STR pooled GRM3 clones; assay: Migration assay (Boyden chamber), Mel-STR pooled GRM3 clones with or without DCG-IV; details: 2.5 μM DCG-IV, serum-free medium in top chamber
Protocol: as §2, §3

SMILES | subG1 population (apoptotic cells) in mutant GRM3 cells compared to WT cells [1] | cleaved PARP in mutant GRM3 lines compared to WT cells (PARP cleavage) | resistance of cells overexpressing WT GRM3 in a mutant GRM3 background compared to control infected cells (cell proliferation) [2] | relative degree of MEK inhibition, mutant versus WT GRM3 cells (MEK) | inhibition of MEK as measured by phosphorylated ERK (p-ERK) levels (MEK; mutant as well as WT GRM3 melanoma cells) | migration of vector and WT GRM3 expressing cells upon stimulation (A375 pooled GRM3 clones) | migration of vector and WT GRM3 expressing cells upon stimulation [3]
Cn1cnc2c(F)c(Nc3ccc(Br)cc3Cl)c(C(=O)NOCCO)cc21 [AZD-6244] | significant increase | increased levels of cleaved PARP | four-fold increased resistance | greater for the mutant cells than for the WT cells | inhibited MEK | – | –
N[C@H](C(=O)O)C1[C@@H](C(=O)O)[C@@H]1C(=O)O (stereo partly shown) [DCG-IV] | – | – | – | – | – | migrated to a similar extent as mutant GRM3 expressing cells in the absence of stimuli | migrated to a similar extent as mutant GRM3 expressing cells in the absence of stimuli
